Assay type in all cases: physicochemical
The nature of data set [1]: Dissolution rate test in caprylic/capric triglyceride. The note with it: 4.0 g powder in 96.0 g caprylic/capric triglyceride, stirring, 25° C., visual inspection. As to the method: Description of dissolution rate test. 4.0 g of powder was dispersed under stirring in 96.0 g of caprylic/capric triglyceride solvent at 25° C. The total dissolution time was measured, with visual inspection, noting the time of complete disappearance of any heterogeneity in the form of particles or opalescence in the solution.

Data set [2] is described as follows: Dissolution rate test in ethylhexyl stearate. The note with it: 4.0 g powder in 96.0 g ethylhexyl stearate, stirring, 25° C., visual inspection. On the procedure:
Description of dissolution rate test. 4.0 g of powder was dispersed under stirring in 96.0 g of ethylhexyl stearate solvent at 25° C. The total dissolution time was measured, with visual inspection, noting the time of complete disappearance of any heterogeneity in the form of particles or opalescence in the solution.

A short description of data set [3]: Dissolution rate test in octyl dodecanol. The note with it: 4.0 g powder in 96.0 g octyl dodecanol, stirring, 25° C., visual inspection. On the procedure: Description of dissolution rate test. 4.0 g of powder was dispersed under stirring in 96.0 g of octyl dodecanol solvent at 25° C. The total dissolution time was measured, with visual inspection, noting the time of complete disappearance of any heterogeneity in the form of particles or opalescence in the solution.

Data set [4] is described as follows: Stability of the amorphous solid form by DSC. Particulars: for solid form stability by DSC: DSC technique. On the procedure: Samples 1C and 1A were characterised by the differential scanning calorimetry (DSC) technique. […] The amorphous solid sample 1A according to the present invention presented a first exothermic transition (corresponding to a formation of crystalline form) at temperatures of between 50 and 90° C., and subsequently at 128° C., the endothermic transition corresponding to melting of the crystalline form that formed at lower temperatures.
Sample 1A was stored for 12 months at room temperature and subjected to a second DSC measurement. Its appearance was still that of a white powder.
A general note: DSC measures the heat that a sample takes up or gives off during a temperature scan.

`CCCCC(CC)COC(=O)c1ccc(Nc2nc(Nc3ccc(C(=O)OCC(CC)CCCC)cc3)nc(Nc3ccc(C(=O)OCC(CC)CCCC)cc3)n2)cc1` (stereo not drawn) [Sample 2C, reference compound]: the dissolution time entry in data set [1] is reported as “over 90 minutes”.

Regarding `CCCCC(CC)COC(=O)c1ccc(Nc2nc(Nc3ccc(C(=O)OCC(CC)CCCC)cc3)nc(Nc3ccc(C(=O)OCC(CC)CCCC)cc3)n2)cc1` (stereo not drawn) [Sample 1A], the values for the dissolution time in data set [1], in data set [2] and in data set [3] were 15 min, 40 min and 90 min, respectively. Besides, the “DSC curve after storage (stability of amorphous form)” value in data set [4] (stored for 12 months at room temperature, second DSC measurement) is “identical to the curve obtained a year earlier”.

In data set [1], `CCCCC(CC)COC(=O)c1ccc(Nc2nc(Nc3ccc(C(=O)OCC(CC)CCCC)cc3)nc(Nc3ccc(C(=O)OCC(CC)CCCC)cc3)n2)cc1` (stereo not drawn) [Sample 2A] yielded a dissolution time of 15 min. Also, in data set [4], the “solid form stability by DSC” value is recorded as “stable amorphous form”.

In the case of `CCCCC(CC)COC(=O)c1ccc(Nc2nc(Nc3ccc(C(=O)OCC(CC)CCCC)cc3)nc(Nc3ccc(C(=O)OCC(CC)CCCC)cc3)n2)cc1` (stereo not drawn) [Sample 1C, reference compound], the dissolution time result in data set [1] is “over 90 minutes”; in data set [2], “over 420 minutes (opaque white dispersion)”; in data set [3], “over 420 minutes (insoluble-opaque white dispersion)”.

In the case of `CCCCC(CC)COC(=O)c1ccc(Nc2nc(Nc3ccc(C(=O)OCC(CC)CCCC)cc3)nc(Nc3ccc(C(=O)OCC(CC)CCCC)cc3)n2)cc1` (stereo not drawn) [Sample 3A], the dissolution time in data set [1] came to 15 min. Further, in data set [4], the “solid form stability by DSC” value is “stable amorphous form”.

These data come from US20140147397A1, “STABLE AMORPHOUS SOLID FORM OF A TRIAZINE DERIVATIVE AND THE CORRESPONDING MANUFACTURING PROCESS” (3V SIGMA S.P.A., priority 2012, published 2014).
